Assay [1] concerns the target T1, RIPK1 (Homo sapiens, UniProt Q13546).
T1 sequence (Q13546 1-671): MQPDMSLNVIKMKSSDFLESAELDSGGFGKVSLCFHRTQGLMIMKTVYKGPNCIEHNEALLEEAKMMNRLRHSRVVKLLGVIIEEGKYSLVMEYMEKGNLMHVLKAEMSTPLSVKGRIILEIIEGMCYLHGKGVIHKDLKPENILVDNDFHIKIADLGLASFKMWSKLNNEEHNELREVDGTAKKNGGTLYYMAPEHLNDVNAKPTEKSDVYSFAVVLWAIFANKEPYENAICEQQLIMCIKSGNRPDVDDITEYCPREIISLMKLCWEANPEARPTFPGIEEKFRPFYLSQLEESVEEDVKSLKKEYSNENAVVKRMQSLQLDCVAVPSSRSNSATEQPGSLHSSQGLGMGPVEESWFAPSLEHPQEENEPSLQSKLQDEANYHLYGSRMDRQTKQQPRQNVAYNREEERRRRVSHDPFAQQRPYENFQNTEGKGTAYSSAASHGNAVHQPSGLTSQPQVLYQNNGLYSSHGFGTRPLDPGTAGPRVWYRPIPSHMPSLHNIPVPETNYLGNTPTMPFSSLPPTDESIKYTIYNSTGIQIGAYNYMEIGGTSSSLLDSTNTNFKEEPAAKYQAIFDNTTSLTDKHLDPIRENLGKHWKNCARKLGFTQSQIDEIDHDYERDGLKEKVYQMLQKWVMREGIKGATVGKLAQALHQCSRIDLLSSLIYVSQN
The experiment in a line: RIPK1 ADP-Glo biochemical kinase assay. The following applies: read-out: RIPK1 ADP-Glo Kinase (IC50). The essentials: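 RIPK1 at 31 ng/well in Tris pH 7.4 buffer with MgCl2, BSA, DTT and MnCl2, reacted with compounds (duplicate) for 30 min at 30 °C. ADP formed detected by ADP-Glo: 40 min stop/depletion, then 30 min detection reagent at room temperature; luminescence read.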

The test system of assay [2] is U937 cells. The assay can be described thus: U937 cell necroptosis assay (TNFa + zVAD, CellTiter-Glo recovery). Format: cell-based. The following applies: Homo sapiens, U-937, 18 h, TNFa 2 ng/mL + zVAD-fmk, read-out: U937 Zvad TNF CTG Recovery, U937, TNFa + zVAD (IC50). The method, boiled down: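 Human U937 (50K/well, 60 uM zVAD-fmk medium, plated same day) or murine L929 (10K/well, plated 18 h, then 40 uM zVAD-fmk medium) were grown in RPMI with 10% FBS. Both were pretreated with compound for 1 h at 37 °C before TNFa at 2 ng/mL final. Viability was read by CellTiter-Glo luminescence after 18 h.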
Background: ATP-based viability assays read luminescence as a measure of living cells.

In assay [3] the test system is L929 cells. The experiment in a line: L929 cell necroptosis assay (TNFa + zVAD, CellTiter-Glo recovery). It is filed as cell-based, murine. The following applies: Mus musculus, L929, 18 h, TNFa 2 ng/mL + zVAD-fmk, read-out: L929-CTG-recovery, L929, TNFa + zVAD (IC50). The procedure: In this example, U937 and L929 cells were exposed to compounds of the present disclosure and a cell necroptosis assay was conducted to evaluate the compounds' activity against human RIP1 and murine RIP1.
U937 and L929 cells were obtained from the American Type Culture Collection (Manassas, VA, USA). Both cells were maintained in logarithmic growth phase in complete RPMI 1640 media (Sigma, ST Louis, MO, USA) supplemented with 10% fetal bovine serum (Sigma, ST Louis, MO, USA) at 37° C. with 5% CO2. For necroptosis assay, L929 cells were plated for 18 h in 100 μL/well medium at 10K cells/well in Costar 96-well black clear-bottom plates (Fisher Scientific, Hampton, NH, USA); U937 cells were plated on the day of the assay in 50 μL/well medium containing 60 uM zVAD-fmk (Lonza, Basel, Switzerland) at 50K cells/well. Medium from L929 cells were removed from the 96-well plates and replaced with 50 μL/well new medium containing 40 uM zVAD-fmk. Each compound of the present disclosure evaluated in this example was serially diluted in DMSO from 2.5 mM in 4-fold dilutions, and then diluted 1:125 in complete medium. 50 μL/well 2× of the compound was then added to the cells in the plates. The cells were pre-incubated with the compound for 1 hour at 37° C. with 5% CO2 and before addition of 10 μL/well 11×TNFa (Peprotech, Rocky Hill, NJ, USA) to give a final concentration of 2 ng/mL for TNFa. The relative amount of necroptosis cells was determined by luminescent using a Wallac Victor2 Luminometer (PerkinElmer, Waltham, MA, USA) and a CellTiter-Glo® Luminescent Cell Viability Reagent Assay (Promega, Madison, WI, USA) added per manufacturer instructions after 18 hours of TNFa stimulation at 37° C. with 5% CO2. This example establishes that embodiments of the compounds described herein have unexpectedly potent activity against human RIP1 and murine RIP1, which allows their assessment in in vivo mouse models of disease.

Usually IC50 stands for the midpoint of a concentration-inhibition curve. As for `CN1C(=O)[C@@H](NC(=O)c2cc(Oc3cccnc3)ccn2)COc2ccc(C#CC3(O)COC3)cc21` [I-57, (S)—N-(7-((3-hydroxyoxetan-3-yl)ethynyl)-5-methyl-4-oxo-2,3,4,5-tetrahydrobenzo[b][1,4]oxazepin-3-yl)-4-(pyridin-3-yloxy)picolinamide], the IC50 in assay [1] came to 18.1 nM; in assay [2], 1.6 nM; in assay [3], 437 nM.

On to `CN1C(=O)[C@@H](NC(=O)n2cc(Cc3cccnc3F)cn2)COc2ccc(C#CC3CCOCC3)cc21` [I-45, (S)-4-((2-Fluoropyridin-3-yl)methyl)-N-(5-methyl-4-oxo-7-((tetrahydro-2H-pyran-4-yl)ethynyl)-2,3,4,5-tetrahydrobenzo[b][1,4]oxazepin-3-yl)-1H-pyrazole-1-carboxamide], for which the IC50 in assay [1] was 45 nM; in assay [2] it was 5.2 nM; in assay [3], 512 nM.

Take `CN1C(=O)[C@@H](NC(=O)n2cc(Cc3cccc(F)n3)cn2)COc2ccc(C#CC(C)(C)C)cc21` [I-106, (S)—N-(7-(3,3-Dimethylbut-1-yn-1-yl)-5-methyl-4-oxo-2,3,4,5-tetrahydrobenzo[b][1,4]oxazepin-3-yl)-4-((6-fluoropyridin-2-yl)methyl)-1H-pyrazole-1-carboxamide]: the IC50 in assay [1] stood at 22.4 nM; in assay [2], 4.3 nM; in assay [3], 750 nM.

Turning to `CN1C(=O)[C@@H](NC(=O)c2cc(Cc3cccc(F)n3)ccn2)COc2ccc(C#CC(C)(C)C)cc21` [I-97, (S)—N-(7-(3,3-dimethylbut-1-yn-1-yl)-5-methyl-4-oxo-2,3,4,5-tetrahydrobenzo[b][1,4]oxazepin-3-yl)-4-((6-fluoropyridin-2-yl)methyl)picolinamide], the IC50 in assay [1] was found to be 83.2 nM; in assay [2], 16.4 nM; in assay [3] it was 386 nM.

As for `CN1C(=O)[C@@H](NC(=O)c2cc(Cn3cccn3)ccn2)COc2ccc(C#CC(C)(C)O)cc21` [I-71, (S)-4-((1H-pyrazol-1-yl)methyl)-N-(7-(3-hydroxy-3-methylbut-1-yn-1-yl)-5-methyl-4-oxo-2,3,4,5-tetrahydrobenzo[b][1,4]oxazepin-3-yl)picolinamide], the IC50 turned out to be 87.8 nM in assay [1], 549 nM in assay [2] and 2150 nM in assay [3].

Regarding `CN1C(=O)[C@@H](NC(=O)c2cc(Oc3cncc(F)c3)ccn2)COc2ccc(C#CC3COC3)cc21` [I-67, (S)-4-((5-fluoropyridin-3-yl)oxy)-N-(5-methyl-7-(oxetan-3-ylethynyl)-4-oxo-2,3,4,5-tetrahydrobenzo[b][1,4]oxazepin-3-yl)picolinamide], the IC50 in assay [1] was determined as 20.1 nM; in assay [2], 1.3 nM; in assay [3], 348 nM.

For the compound `Cc1cccc(Cc2ccnc(C(=O)N[C@H]3COc4ccc(C#CC(C)(C)O)cc4N(C)C3=O)c2)n1` [I-11, (S)—N-(7-(3-hydroxy-3-methylbut-1-yn-1-yl)-5-methyl-4-oxo-2,3,4,5-tetrahydrobenzo[b][1,4]oxazepin-3-yl)-4-((6-methylpyridin-2-yl)methyl)picolinamide], the IC50 came out at 120 nM in assay [1], 126 nM in assay [2] and 7430 nM in assay [3].

`Cc1ccc(Oc2ccnc(C(=O)N[C@H]3COc4ccc(C#CC5(O)COC5)cc4N(C)C3=O)c2)c(C)n1` [I-79, (S)-4-((2,6-dimethylpyridin-3-yl)oxy)-N-(7-((3-hydroxyoxetan-3-yl)ethynyl)-5-methyl-4-oxo-2,3,4,5-tetrahydrobenzo[b][1,4]oxazepin-3-yl)picolinamide]: the IC50 turned out to be 67.2 nM in assay [1], 182 nM in assay [2] and 4330 nM in assay [3].

`CN1C(=O)[C@@H](NC(=O)c2cc(Cc3cscn3)ccn2)COc2ccc(C#CC3(O)COC3)cc21` [I-76, (S)—N-(7-((3-hydroxyoxetan-3-yl)ethynyl)-5-methyl-4-oxo-2,3,4,5-tetrahydrobenzo[b][1,4]oxazepin-3-yl)-4-(thiazol-4-ylmethyl)picolinamide]: the IC50 in assay [1] is 12.8 nM; in assay [2], 24.7 nM; in assay [3], 538 nM.

Turning to `CN1C(=O)[C@@H](NC(=O)c2cc(Oc3cccnc3C(F)(F)F)ccn2)COc2ccc(C#CC3(O)COC3)cc21` [I-88, (S)—N-(7-((3-hydroxyoxetan-3-yl)ethynyl)-5-methyl-4-oxo-2,3,4,5-tetrahydrobenzo[b][1,4]oxazepin-3-yl)-4-((2-(trifluoromethyl)pyridin-3-yl)oxy)picolinamide], the values for the IC50 in assay [1], in assay [2] and in assay [3] were 56.3 nM, 133 nM and 10600 nM, respectively.

Consider `CN1C(=O)[C@@H](NC(=O)n2cc(Cc3cccc(F)n3)cn2)COc2ccc(C#CC3COC3)cc21` [I-108, (S)-4-((6-Fluoropyridin-2-yl)methyl)-N-(5-methyl-7-(oxetan-3-ylethynyl)-4-oxo-2,3,4,5-tetrahydrobenzo[b][1,4]oxazepin-3-yl)-1H-pyrazole-1-carboxamide], for which the IC50 is 88 nM in assay [1], 12.8 nM in assay [2] and 2090 nM in assay [3].

As for `CN1C(=O)[C@@H](NC(=O)n2cc(Cc3cccc(F)n3)cn2)CCc2ccc(C#CC3(O)CCOCC3)cc21` [I-116, (S)-4-((6-Fluoropyridin-2-yl)methyl)-N-(8-((4-hydroxytetrahydro-2H-pyran-4-yl)ethynyl)-1-methyl-2-oxo-2,3,4,5-tetrahydro-1H-benzo[b]azepin-3-yl)-1H-pyrazole-1-carboxamide], the half-inhibitory concentration (IC50) in assay [1] was 12.9 nM; in assay [2], 0.5 nM; in assay [3], 69.4 nM.

In the case of `CN1C(=O)[C@@H](NC(=O)c2cc(Cc3cscn3)ccn2)COc2ccc(C#CC(C)(C)O)cc21` [I-77, (S)—N-(7-(3-hydroxy-3-methylbut-1-yn-1-yl)-5-methyl-4-oxo-2,3,4,5-tetrahydrobenzo[b][1,4]oxazepin-3-yl)-4-(thiazol-4-ylmethyl)picolinamide], the figures for the IC50 in assay [1], in assay [2] and in assay [3] were 21.8 nM, 62.2 nM and 724 nM, respectively.

For the compound `CN1C(=O)[C@@H](NC(=O)c2cc(Cc3cccc(C#N)n3)ccn2)COc2ccc(C#CC3(O)COC3)cc21` [I-94, (S)-4-((6-cyanopyridin-2-yl)methyl)-N-(7-((3-hydroxyoxetan-3-yl)ethynyl)-5-methyl-4-oxo-2,3,4,5-tetrahydrobenzo[b][1,4]oxazepin-3-yl)picolinamide], the IC50 in assay [1] worked out at 18 nM; in assay [2], 23.7 nM; in assay [3], 3790 nM.

Turning to `CN1C(=O)[C@@H](NC(=O)n2cc(Cc3cccc(F)n3)cn2)COc2ccc(C#CC3(O)CCOCC3)cc21` [I-33, (S)-4-((6-Fluoropyridin-2-yl)methyl)-N-(7-((4-hydroxytetrahydro-2H-pyran-4-yl)ethynyl)-5-methyl-4-oxo-2,3,4,5-tetrahydrobenzo[b][1,4]oxazepin-3-yl)-1H-pyrazole-1-carboxamide], the IC50 was 17.1 nM in assay [1], 11.6 nM in assay [2] and 1130 nM in assay [3].
